Earlier results as cited in patent US20150141404A1, “NON-IONIC VESICLE FORMULATIONS OF CALCIUM CHANNEL BLOCKERS” (CONTRACT PHARMACEUTICALS LIMITED, priority 2012, published 2015).

Tested on: anal fissure
Details: topical

COc1ccc([C@@H]2Sc3ccccc3N(CCN(C)C)C(=O)[C@@H]2OC(C)=O)cc1 [diltiazem, Diltiazem]
healing rates: improved
maximum resting pressure (MRP): reduces
